The record followed here is ChEMBL document CHEMBL3045723, “Synthesis of novel 3-(5-sulfanyl-1,3,4-oxadiazol-2-yl)-2H-chromen-2-one condensed s-triazinyl piperazines and piperidines as antimicrobial agents” (2012).

In brackets after ≈: the same amount, converted by molar mass.

Usually MIC stands for the lowest concentration that inhibits growth of the organism.

For experiment [1], the system named is Shigella flexneri. Briefly: Antibacterial activity against Shigella flexneri after 24 hr. The class given is functional.
Experiment [2] relates to Proteus vulgaris. Briefly: Antibacterial activity against Proteus vulgaris MTCC 1771 after 24 hr. The class given is functional. The conditions noted are these: MTCC 1771, 24 h.
Experiment [3] has as its system Salmonella typhi. Briefly: Antibacterial activity against Salmonella enterica subsp. enterica serovar Typhi MTCC 733 after 24 hr. The class given is functional. The conditions noted are these: MTCC 733, 24 h.
Experiment [4] relates to Bacillus cereus. Description: Antibacterial activity against Bacillus cereus MTCC 619 at 100 ug/disk after 24 hr by agar disk diffusion test. It is filed as functional. The conditions noted are these: MTCC 619, 24 h, read-out: IZ.
Experiment [5] relates to Staphylococcus aureus. Briefly: Antibacterial activity against Staphylococcus aureus MTCC 96 at 100 ug/disc after 24 hr by agar disk diffusion test. As to conditions: MTCC 96, 24 h, read-out: IZ. On the technique in general: Agar diffusion results depend on both activity and mobility in agar.
Experiment [6] concerns Klebsiella pneumoniae. Description: Antibacterial activity against Klebsiella pneumoniae MTCC 109 after 24 hr. The class given is functional. The conditions noted are these: MTCC 109, 24 h.
The subject of experiment [7] is Pseudomonas aeruginosa. Description: Antibacterial activity against Pseudomonas aeruginosa MTCC 741. The class given is functional.
Experiment [8] concerns Bacillus cereus. Description: Antibacterial activity against Bacillus cereus MTCC 619 after 24 hr. As to conditions: MTCC 619, 24 h. The class given is functional.
Experiment [9] relates to Staphylococcus aureus. Briefly: Antibacterial activity against Staphylococcus aureus MTCC 96 after 24 hr. It is filed as functional. The conditions noted are these: MTCC 96, 24 h.
The test system of experiment [10] is Shigella flexneri. Description: Antibacterial activity against Shigella flexneri at 100 ug/disc after 24 hr by agar disk diffusion test. The conditions noted are these: read-out: IZ. The class given is functional.
The subject of experiment [11] is Proteus vulgaris. Description: Antibacterial activity against Proteus vulgaris MTCC 1771 at 100 ug/disk after 24 hr by agar disk diffusion test. It is filed as functional. The conditions noted are these: MTCC 1771, 24 h, read-out: IZ.
Experiment [12] relates to Salmonella typhi. Description: Antibacterial activity against Salmonella enterica subsp. enterica serovar Typhi MTCC 733 at 100 ug/disk after 24 hr by agar disk diffusion test. It is filed as functional. The conditions noted are these: MTCC 733, 24 h, read-out: IZ.
Experiment [13] relates to Pseudomonas aeruginosa. Briefly: microbe, parasite or virus in culture. The conditions noted are these: MTCC 741, 24 h, read-out: IZ.
Description: Antibacterial activity against Pseudomonas aeruginosa MTCC 741 at 100 ug/disk after 24 hr by agar disk diffusion test
In experiment [14] the test system is Escherichia coli. Description: microbe, parasite or virus in culture. The conditions noted are these: MTCC 739, 24 h, read-out: IZ.
Description: Antibacterial activity against Escherichia coli MTCC 739 at 100 ug/disk after 24 hr by agar disk diffusion test
Experiment [15] has as its system Klebsiella pneumoniae. Description: microbe, parasite or virus in culture. The conditions noted are these: MTCC 109, 24 h, read-out: IZ.
Description: Antibacterial activity against Klebsiella pneumoniae MTCC 109 at 100 ug/disk after 24 hr by agar disk diffusion test
The subject of experiment [16] is Candida albicans. Briefly: Antifungal activity against Candida albicans MTCC 183 after 48 hr. The class given is functional. As to conditions: MTCC 183, 48 h.
The subject of experiment [17] is Aspergillus niger. Briefly: Antifungal activity against Aspergillus niger MTCC 282 after 48 hr. The class given is functional. As to conditions: MTCC 282, 48 h.
In experiment [18] the test system is Candida albicans. Description: Antifungal activity against Candida albicans MTCC 183 at 100 ug/disk after 24 hr by agar disk diffusion test. It is filed as functional. The conditions noted are these: MTCC 183, 24 h, read-out: IZ.
Experiment [19] concerns Aspergillus niger. Briefly: Antifungal activity against Aspergillus niger MTCC 282 at 100 ug/disk after 24 hr by agar disk diffusion test. As to conditions: MTCC 282, 24 h, read-out: IZ. It is filed as functional.
Experiment [20] has as its system Candida albicans. Briefly: Antifungal activity against Candida albicans MTCC 183 after 24 hr by agar disk diffusion test. It is filed as functional.
Experiment [21] has as its system Aspergillus niger. Briefly: Antifungal activity against Aspergillus niger MTCC 282 after 24 hr by agar disk diffusion test. The class given is functional.
Experiment [22] relates to Shigella flexneri. Description: Antibacterial activity against Shigella flexneri after 24 hr by agar disk diffusion test. The class given is functional.
Experiment [23] concerns Proteus vulgaris. Description: Antibacterial activity against Proteus vulgaris MTCC 1771 after 24 hr by agar disk diffusion test. It is filed as functional.
Experiment [24] relates to Salmonella typhi. Description: Antibacterial activity against Salmonella enterica subsp. enterica serovar Typhi MTCC 733 after 24 hr by agar disk diffusion test. It is filed as functional.
Experiment [25] relates to Klebsiella pneumoniae. Briefly: Antibacterial activity against Klebsiella pneumoniae MTCC 109 after 24 hr by agar disk diffusion test. The class given is functional.
For experiment [26], the system named is Pseudomonas aeruginosa. Briefly: Antibacterial activity against Pseudomonas aeruginosa MTCC 741 after 24 hr by agar disk diffusion test. It is filed as functional.
Experiment [27] relates to Escherichia coli. Description: Antibacterial activity against Escherichia coli MTCC 739 after 24 hr by agar disk diffusion test. It is filed as functional.
Experiment [28] concerns Bacillus cereus. Briefly: Antibacterial activity against Bacillus cereus MTCC 619 after 24 hr by agar disk diffusion test. It is filed as functional.
The test system of experiment [29] is Staphylococcus aureus. Briefly: Antibacterial activity against Staphylococcus aureus MTCC 96 after 24 hr by agar disk diffusion test. The class given is functional.
The subject of experiment [30] is Escherichia coli. Briefly: Antibacterial activity against Escherichia coli MTCC 739 after 24 hr. It is filed as functional. As to conditions: MTCC 739, 24 h.

As for `O=C(O)c1cn(C2CC2)c2cc(N3CCNCC3)c(F)cc2c1=O` [CIPROFLOXACIN], the minimum inhibitory concentration (MIC) with Shigella flexneri [1] was determined as 1.56 µg/mL (≈ 4.71 µM); against Proteus vulgaris [2], 0.39 µg/mL (≈ 1.18 µM); with Salmonella typhi [3], 0.39 µg/mL (≈ 1.18 µM); with Klebsiella pneumoniae [6], 0.78 µg/mL (≈ 2.35 µM); with Pseudomonas aeruginosa [7], 0.78 µg/mL (≈ 2.35 µM); with Bacillus cereus [8], 0.39 µg/mL (≈ 1.18 µM). Further, the MIC against Staphylococcus aureus [9] was 1.56 µg/mL (≈ 4.71 µM). For the same compound, the zone of inhibition at 100 µg/disc with Bacillus cereus [4] amounted to 31 mm; in the experiment with Staphylococcus aureus [5], 30 mm; in the experiment with Shigella flexneri [10], 32 mm; in the experiment on Proteus vulgaris [11], 31 mm; with Salmonella typhi [12], 30 mm; with Pseudomonas aeruginosa [13] it was 33 mm. Also, the zone of inhibition at 100 µg/disc with Escherichia coli [14] was determined as 32 mm; with Klebsiella pneumoniae [15] it was 33 mm.
For `CC(=O)N1CCN(c2ccc(OCC3COC(Cn4ccnc4)(c4ccc(Cl)cc4Cl)O3)cc2)CC1` (centres undefined) [KETOCONAZOLE], the MIC in the experiment on Candida albicans [16] and against Aspergillus niger [17] was 1.56 µg/mL (≈ 2.94 µM) throughout. Besides, the zone of inhibition at 100 µg/disc with Candida albicans [18] amounted to 33 mm; with Aspergillus niger [19], 30 mm.
As to `CC(=O)N1CCN(c2nc(Oc3cccc4cccnc34)nc(Sc3nnc(-c4cc5ccccc5oc4=O)o3)n2)CC1`, the MIC against Candida albicans [16] amounted to 100 µg/mL (≈ 168 µM); in the experiment with Aspergillus niger [17], 100 µg/mL (≈ 168 µM); in the experiment with Shigella flexneri [1], 25 µg/mL (≈ 42 µM); in the experiment on Proteus vulgaris [2], 100 µg/mL (≈ 168 µM); with Salmonella typhi [3], 12.5 µg/mL (≈ 21 µM); in the experiment on Klebsiella pneumoniae [6] it was 100 µg/mL (≈ 168 µM). Further, the MIC with Pseudomonas aeruginosa [7] stood at 12.5 µg/mL (≈ 21 µM); in the experiment on Escherichia coli [30] it was 100 µg/mL (≈ 168 µM); against Bacillus cereus [8] it was 25 µg/mL (≈ 42 µM); in the experiment with Staphylococcus aureus [9], 50 µg/mL (≈ 84.1 µM). Further, the “inhibition zone (IZ)” value in the experiment with Candida albicans [20] was 13 mm; in the experiment with Aspergillus niger [21] it was 16 mm; in the experiment on Shigella flexneri [22] it was 23 mm; with Proteus vulgaris [23], 18 mm; with Salmonella typhi [24] it was 22 mm; in the experiment with Klebsiella pneumoniae [25] it was 13 mm. For the same compound, the “inhibition zone (IZ)” value with Pseudomonas aeruginosa [26] stood at 23 mm; in the experiment on Escherichia coli [27], 15 mm; in the experiment with Bacillus cereus [28] it was 22 mm; with Staphylococcus aureus [29], 20 mm.
Turning to `O=c1oc2ccccc2cc1-c1nnc(Sc2nc(Oc3cccc4cccnc34)nc(N3CCN(c4ccc(F)cc4)CC3)n2)o1`, the MIC stood at 50 µg/mL (≈ 77.3 µM) against Candida albicans [16]; 100 µg/mL (≈ 155 µM) against Aspergillus niger [17]; 100 µg/mL (≈ 155 µM) against Shigella flexneri [1]; 50 µg/mL (≈ 77.3 µM) against Proteus vulgaris [2]; 100 µg/mL (≈ 155 µM) in the experiment with Salmonella typhi [3]; 100 µg/mL (≈ 155 µM) in the experiment on Klebsiella pneumoniae [6]. The MIC is 50 µg/mL (≈ 77.3 µM) in the experiment with Pseudomonas aeruginosa [7], 25 µg/mL (≈ 38.7 µM) against Escherichia coli [30], 50 µg/mL (≈ 77.3 µM) with Bacillus cereus [8] and 25 µg/mL (≈ 38.7 µM) against Staphylococcus aureus [9]. Besides, the “inhibition zone (IZ)” value was 22 mm with Candida albicans [20]; 21 mm in the experiment on Aspergillus niger [21]; 17 mm in the experiment on Shigella flexneri [22]; 21 mm in the experiment on Proteus vulgaris [23]; 19 mm in the experiment with Salmonella typhi [24]; 16 mm in the experiment with Klebsiella pneumoniae [25]. Further, the “inhibition zone (IZ)” value came out at 21 mm with Pseudomonas aeruginosa [26], 23 mm in the experiment on Escherichia coli [27], 21 mm in the experiment with Bacillus cereus [28] and 22 mm in the experiment on Staphylococcus aureus [29].
Take `O=c1oc2ccccc2cc1-c1nnc(Sc2nc(Oc3cccc4cccnc34)nc(N3CCN(C(c4ccccc4)c4ccccc4)CC3)n2)o1`: the MIC against Candida albicans [16], against Aspergillus niger [17], against Shigella flexneri [1], in the experiment on Proteus vulgaris [2], against Salmonella typhi [3] and in the experiment with Klebsiella pneumoniae [6] was 100 µg/mL (≈ 139 µM) in each case. In addition, the MIC in the experiment on Pseudomonas aeruginosa [7], in the experiment with Escherichia coli [30], in the experiment with Bacillus cereus [8] and against Staphylococcus aureus [9] was 100 µg/mL (≈ 139 µM) each time. Besides, the “inhibition zone (IZ)” value in the experiment with Candida albicans [20] is below 10 mm; in the experiment with Aspergillus niger [21], 11 mm; in the experiment on Shigella flexneri [22] it was 14 mm; in the experiment with Proteus vulgaris [23], below 10 mm; in the experiment with Salmonella typhi [24] it was 12 mm; with Klebsiella pneumoniae [25], 14 mm. Further, the “inhibition zone (IZ)” value is given as below 10 mm with Pseudomonas aeruginosa [26], 13 mm in the experiment with Escherichia coli [27], 14 mm in the experiment with Bacillus cereus [28] and 18 mm with Staphylococcus aureus [29].
As for `CC(C)N1CCN(c2nc(Oc3cccc4cccnc34)nc(Sc3nnc(-c4cc5ccccc5oc4=O)o3)n2)CC1`, the MIC against Candida albicans [16] was 100 µg/mL (≈ 168 µM); against Aspergillus niger [17] it was 100 µg/mL (≈ 168 µM); against Shigella flexneri [1] it was 25 µg/mL (≈ 42 µM); against Proteus vulgaris [2], 100 µg/mL (≈ 168 µM); with Salmonella typhi [3] it was 50 µg/mL (≈ 84.1 µM); with Klebsiella pneumoniae [6], 100 µg/mL (≈ 168 µM). For the same compound, the MIC is 25 µg/mL (≈ 42 µM) against Pseudomonas aeruginosa [7], 100 µg/mL (≈ 168 µM) against Escherichia coli [30], 100 µg/mL (≈ 168 µM) with Bacillus cereus [8] and 100 µg/mL (≈ 168 µM) against Staphylococcus aureus [9]. In addition, the “inhibition zone (IZ)” value with Candida albicans [20] turned out to be 11 mm; in the experiment with Aspergillus niger [21], 12 mm; in the experiment with Shigella flexneri [22] it was 24 mm; with Proteus vulgaris [23] it was 15 mm; in the experiment with Salmonella typhi [24], 20 mm; in the experiment on Klebsiella pneumoniae [25] it was 14 mm. Also, the “inhibition zone (IZ)” value in the experiment on Pseudomonas aeruginosa [26] is 21 mm; in the experiment on Escherichia coli [27], 16 mm; with Bacillus cereus [28], 16 mm; in the experiment on Staphylococcus aureus [29] it was 19 mm.
As to `O=c1oc2ccccc2cc1-c1nnc(Sc2nc(Oc3cccc4cccnc34)nc(N3CCN(Cc4ccccc4)CC3)n2)o1`, the MIC with Candida albicans [16], against Aspergillus niger [17], in the experiment on Shigella flexneri [1], in the experiment on Proteus vulgaris [2], in the experiment on Salmonella typhi [3] and against Klebsiella pneumoniae [6] was 100 µg/mL (≈ 156 µM) throughout. For the same compound, the MIC in the experiment with Pseudomonas aeruginosa [7], in the experiment on Escherichia coli [30], against Bacillus cereus [8] and against Staphylococcus aureus [9] was 100 µg/mL (≈ 156 µM) in each case. The “inhibition zone (IZ)” value is given as below 10 mm with Candida albicans [20]; below 10 mm in the experiment on Aspergillus niger [21]; 13 mm in the experiment with Shigella flexneri [22]; below 10 mm with Proteus vulgaris [23]; below 10 mm in the experiment on Salmonella typhi [24]; below 10 mm in the experiment with Klebsiella pneumoniae [25]. In addition, the “inhibition zone (IZ)” value in the experiment on Pseudomonas aeruginosa [26] is on record as 19 mm; in the experiment on Escherichia coli [27], 16 mm; in the experiment on Bacillus cereus [28], 17 mm; in the experiment with Staphylococcus aureus [29], 13 mm.
